# Non-standard residues stand in square brackets, D forms with d. No end group written: not given here.
# Assays:
# [1] = tested on: New Zealand white rabbits; assay: Rabbit model of acute myocardial ischemia and reperfusion (coronary occlusion), infarct size by histomorphometry; type: in vivo
# Experimental: New Zealand white rabbits were used in this study. The rabbits were males and >10 weeks in age. Environmental controls in the animal rooms were set to maintain temperatures of 61° to 72° F. and relative humidity between 30% and 70%. Room temperature and humidity were recorded hourly, and monitored daily. There were approximately 10-15 air exchanges per hour in the animal rooms. Photoperiod was 12-hr light/12-hr dark (via fluorescent lighting) with exceptions as necessary to accommodate dosing and data collection. Routine daily observations were performed. Harlan Teklad, Certified Diet (2030C), rabbit diet was provided approximately 180 grams per day from arrival to the facility. In addition, fresh fruits and vegetables were given to the rabbit 3 times a week.
# The peptide D-Arg-2′6′-Dmt-Lys-Phe-NH2 (sterile lyophilized powder) was used as the test article. Dosing solutions were formulated at no more than 1 mg/ml, and were delivered via continuous infusion (IV) at a constant rate (e.g., 50 μL/kg/min). Normal saline (0.9% NaCl) was used as a control.
# The test/vehicle articles were given intravenously, under general anesthesia, in order to mimic the expected route of administration in the clinical setting of AMI and PTCA. Intravenous infusion was administered via a peripheral vein using a Kd Scientific infusion pump (Holliston, Mass. 01746) at a constant volume (e.g., 50 μL/kg/min).
# The study followed a predetermined placebo and sham controlled design. In short, 10-20 healthy, acclimatized, male rabbits were assigned to one of three study arms (approximately 2-10 animals per group). Arm A (n=10, CTRL/PLAC) includes animals treated with vehicle (vehicle; VEH, IV); Arm B (n=10, treated) includes animals treated with peptide; Arm C (n=2, SHAM) includes sham-operated time-controls treated with vehicle (vehicle; VEH, IV) or peptide.
# In all cases, treatments were started approximately 10 min after the onset of a 30 min ischemic insult (coronary occlusion) and continued for up to 3 h following reperfusion. In all cases, cardiovascular function was monitored both prior to and during ischemia, as well as for up to 180 min (3 h) post-reperfusion. The experiments were terminated 3 h post-reperfusion (end of study); irreversible myocardial injury (infarct size by histomorphometery) at this time-point was evaluated, and was the primary-end-point of the study.
# General anesthesia was induced intramuscularly (IM) with a ketamine (˜35-50 mg/kg)/xylazine (˜5-10 mg/kg) mixture. A venous catheter was placed in a peripheral vein (e.g., ear) for the administration of anesthetics. In order to preserve autonomic function, anesthesia was maintained with continuous infusions of propofol (˜8-30 mg/kg/hour) and ketamine (˜1.2-2.4 mg/kg/hr). A cuffed tracheal tube was placed via a tracheotomy (ventral midline incision) and used to mechanically ventilate the lungs with a 95% O2/5% CO2 mixture via a volume-cycled animal ventilator (˜40 breaths/minute with a tidal volume of −12.5 ml/kg) in order to sustain PaCO2 values broadly within the physiological range.
# Once a surgical plane of anesthesia was reached, either transthoracic or needle electrodes forming two standard ECG leads (e.g., lead II, aVF, V2) were placed. A cervical cut-down exposed a carotid artery, which was isolated, dissected free from the surrounding tissue and cannulated with a dual-sensor high-fidelity micromanometer catheter (Millar Instruments); the tip of this catheter was advanced into the left-ventricle (LV) retrogradely across the aortic valve, in order to simultaneously determine aortic (root, proximal transducer) and left-ventricular (distal transducer) pressures. The carotid cut-down also exposed the jugular vein, which was cannulated with a hollow injection catheter (for blood sampling). Finally, an additional venous catheter was placed in a peripheral vein (e.g., ear) for the administration of vehicle/test articles. […]
# [2] = tested on: subjects with STEMI and hypertension; assay: EMBRACE STEMI trial, subjects with anterior STEMI undergoing PCI; hypertensive subgroup compared; type: in vivo, human
# Experimental: The EMBRACE STEMI study is known in the art (see e.g., Chakrabarti et al., Am Heart J, 165(4):509-514 (2013), the content of which is incorporate by reference in its entirety). Briefly, the EMBRACE STEMI trial is a multicenter, randomized, double-blind, placebo-controlled study. The study design was approved by institutional and national regulatory bodies and ethical committees. Multiple safety reviews were performed by an independent Data and Safety Monitoring Board throughout the course of the trial. All subjects provided written informed consent prior to randomization.
# Subjects aged 18 to 85 years with anterior STEMI undergoing first-time percutaneous coronary intervention (PCI) plus stenting with an anticipated time from ischemic symptoms to time of balloon inflation <4 hours, with >0.1 mV ST-segment elevation in at least 2 contiguous precordial leads were enrolled. Major exclusion criteria included a history of prior myocardial infarction (MI), previous heart failure (e.g., known left ventricle ejection fraction (LVEF)<30% prior to the qualifying infarct), and cardiogenic shock.
# To assess efficacy in large MIs that had not sustained reperfusion injury, only subjects who met angiographic and post-PCI inclusion criteria were included in the primary analysis population (PAP) (FIG. 7): (1) the presence of a proximal/mid left anterior descending (LAD) occlusion with pre-PCI TIMI flow 0 or 1 and no visible evidence of significant coronary collateral flow; (2) dilation of only the LAD; (3) successful PCI of the LAD with post-PCI TIMI flow >2; and (4) no evidence of a second MI within 72 hours of the initial PCI which would confound the infarct size determination.
# Subjects were randomized in a double blind 1:1 fashion to receive either D-Arg-2′,6′-Dmt-Lys-Phe-NH2 of at 0.05 mg/kg/hr or a control placebo by IV injection (Treatment group: n=58; Control group: n=60). D-Arg-2′,6′-Dmt-Lys-Phe-NH2 was administered >15 minutes, but <60 minutes prior to PCI and for 1 hour following reperfusion. Subjects underwent cardiac magnetic resonance imaging (MRI) at 4±1 days and again at 30±7 days post-PCI. Follow-up visits were conducted at discharge, at 30±7 days, 90±14 days, and 6±1.5 months post-PCI.
# The primary end point of the study was infarct size, or the area under the curve (AUC) of creatine kinase-MB (CK-MB) enzyme over 72 hours following PCI with the values log transformed and adjusted for the percent of artery distal to the occlusion and duration of symptoms (two variables known to confound the estimation of infarct size).19-21 Secondary end points included the AUCO-72 of troponin I, peak cardiac enzymes, the ratio of the volume of infarcted myocardium (late contrast gadolinium enhancement) to the left ventricular (LV) mass on cardiac Mill at day 4±1, day 30±7, and the change (4) in ratios from day 4±1 to day 30±7, measures of myocardial structure and function (left ventricular ejection fraction (LVEF), left ventricular end systolic volume (LVESV), and left ventricular end diastolic volume (LVEDV)) at day 4±1, day 30±7, and the change (4) in these measures from day 4±1 to day 30±7, TIMI myocardial perfusion grade (TMPG), TIMI flow grade (TFG), corrected TIMI frame count post-PCI and complete ST-segment elevation resolution (>70%) by the Schroder criteria. Laboratory measures of congestive heart failure (CHF) (N-terminal pro-B type natriuretic […]), and renal function (serum creatinine, estimated glomerular filtration rate, cystatin C, and blood urea nitrogen) were also evaluated.
# The incidence of the clinical composite endpoint of all-cause death, new-onset CHF beginning >24 hours post-PCI and within the duration of the index hospitalization, and CHF re-hospitalization was also determined through 30±7 days and 6±1.5 months post-PCI. Safety endpoints included treatment emergent adverse events (TEAE). The pharmacokinetic profile of D-Arg-2′6′-Dmt-Lys-Phe-NH2 was determined based on the drug serum concentration. […]
# [3] = tested on: mu-opioid receptor; settings: stated in the description, no data shown; cited from earlier work
# [4] = tested on: several mammalian cell types; settings: energy-independent manner; Zhao et al. 2003; cited from earlier work
# [5] = 30 min ischemia, 180 min reperfusion, IV continuous infusion from 10 min of ischemia, n = 10, means with standard errors
# [6] = peptide group versus placebo group, p < 0.05
substance,measurement,setting,value
"D-Arg-2′,6′-Dmt-Lys-Phe-NH2 [D-Arg-2′6′-Dmt-Lys-Phe-NH2]",Myocardial Area (%) IA/AR (infarcted area to area of risk),[1]; [5],24.7 ± 4.7%
same,Myocardial Area (%) IA/LV (infarcted area to left ventricular area),[1]; [5],16.2 ± 3.4%
same,Infarct size compared to the control,"[1]; induced cardiac ischemia, FIGS. 4A-4E",decreased infarct size
same,"IA/AR, % versus placebo",[1]; [6],−32 ± 13%
same,"IA/LV, % versus placebo",[1]; [6],−24 ± 16%
same,Myocardial salvage with shorter treatment,"[1]; treatment for less than 3 hours after reperfusion, i.e., 30 min, data not shown",comparable myocardial salvage
same,Proportion of complete or partial ST segment resolution,"[2]; 24 hours post-PCI, hypertensive subjects, control 88.2%, p=0.05",100%
same,Mean infarct volume on cardiac MRI,"[2]; day 4±1, 0.05 mg/kg/hr IV, control 52.6±30.2, p=0.03",35.8 ± 22.8 mL
same,Mean left ventricle (LV) mass,"[2]; hypertensive subjects, 0.05 mg/kg/hr IV, control 162.2±52.4, p=0.08",141.5±53.2 grams
same,New onset CHF during the first 8 hours post-PCI,"[2]; hypertensive subjects, control 11 incidents",5 incidents
same,New onset CHF <24 hours post-PCI,"[2]; hypertensive subjects, control 15 incidents",8 incidents
same,Myocardial edema on cardiac MRI,"[2]; hypertensive subjects, control 60.9±20.5, p=0.053",48.9±22.0
same,Mu-opioid receptor agonist activity,[3],does not have mu-opioid receptor agonist activity
"2′,6′-Dmt-D-Arg-Phe-Lys-NH2",Penetration of the plasma membrane,[4],readily penetrates the plasma membrane
F[dR]FK-NH2,Mu-opioid receptor agonist activity,[3],does not have mu-opioid receptor agonist activity
Tyr-D-Arg-Phe-Lys-NH2,Mu-opioid receptor agonist activity,[3],has mu-opioid receptor agonist activity

# Reference: US20160151444A1, “METHODS FOR THE PREVENTION OR TREATMENT OF VESSEL OCCLUSION INJURY” (Stealth Peptides International, Inc., priority 2009, published 2016)
